Reference: BindingDB's records for doi:10.1021/acs.jmedchem.1c00818 (University of Picardy Jules Verne, 2021)
pIC50: −log10 of the molar value.

Tests used:
[1] = Inhibition of DC-SIGN (unknown origin) expressed in human Jurkat cells assessed as inhibition of EBOV-pseudotyped virus infection measured after 48 hrs by luciferase assay
[2] = Inhibition of full-length DC-SIGN (unknown origin) expressed in human monocyte derived dendritic cells assessed as inhibition of binding to recombinant HCMV gB using flow cytometry
[3] = Inhibition of DC-SIGN extracellular domain (unknown origin) binding to HIV gp120 by surface plasmon resonance analysis

| Compound | pIC50 [1] | pIC50 [2] | pIC50 [3] |
| --- | --- | --- | --- |
| CC(C)(C)c1cc2c(OCCCn3cc(CN(O)C(=O)CCCCCn4cc(CO[C@H]5O[C@H](CO)[C@@H](O)[C@H](O)[C@@H]5O)nn4)nn3)c(c1)Cc1cc(C(C)(C)C)cc(c1OCCCn1cc(CN(O)C(=O)CCCCCn3cc(CO[C@H]4O[C@H](CO)[C@@H](O)[C@H](O)[C@@H]4O)nn3)nn1)Cc1cc(C(C)(C)C)cc(c1OCCCn1cc(CN(O)C(=O)CCCCCn3cc(CO[C@H]4O[C@H](CO)[C@@H](O)[C@H](O)[C@@H]4O)nn3)nn1)Cc1cc(C(C)(C)C)cc(c1OCCCn1cc(CN(O)C(=O)CCCCCn3cc(CO[C@H]4O[C@H](CO)[C@@H](O)[C@H](O)[C@@H]4O)nn3)nn1)C2 | 6.20 | 6.81 | 4.43 |
| C[C@@H]1O[C@@H](OCc2cn(CCCCCC(=O)N(O)Cc3cn(CCCOc4c5cc(C(C)(C)C)cc4Cc4cc(C(C)(C)C)cc(c4OCCCn4cc(CN(O)C(=O)CCCCCn6cc(CO[C@@H]7O[C@@H](C)[C@@H](O)[C@@H](O)[C@@H]7O)nn6)nn4)Cc4cc(C(C)(C)C)cc(c4OCCCn4cc(CN(O)C(=O)CCCCCn6cc(CO[C@@H]7O[C@@H](C)[C@@H](O)[C@@H](O)[C@@H]7O)nn6)nn4)Cc4cc(C(C)(C)C)cc(c4OCCCn4cc(CN(O)C(=O)CCCCCn6cc(CO[C@@H]7O[C@@H](C)[C@@H](O)[C@@H](O)[C@@H]7O)nn6)nn4)C5)nn3)nn2)[C@@H](O)[C@H](O)[C@@H]1O | 6.54 | 6.73 | 4.57 |
| COC(=O)CNC(=O)CN(Cc1cn(CCCOc2c3cc(C(C)(C)C)cc2Cc2cc(C(C)(C)C)cc(c2OCCCn2cc(CN(CC(=O)NCC(=O)OC)C(=O)CCCCCn4cc(CO[C@@H]5O[C@@H](C)[C@@H](O)[C@@H](O)[C@@H]5O)nn4)nn2)Cc2cc(C(C)(C)C)cc(c2OCCCn2cc(CN(CC(=O)NCC(=O)OC)C(=O)CCCCCn4cc(CO[C@@H]5O[C@@H](C)[C@@H](O)[C@@H](O)[C@@H]5O)nn4)nn2)Cc2cc(C(C)(C)C)cc(c2OCCCn2cc(CN(CC(=O)NCC(=O)OC)C(=O)CCCCCn4cc(CO[C@@H]5O[C@@H](C)[C@@H](O)[C@@H](O)[C@@H]5O)nn4)nn2)C3)nn1)C(=O)CCCCCn1cc(CO[C@@H]2O[C@@H](C)[C@@H](O)[C@@H](O)[C@@H]2O)nn1 | 6.66 | 6.11 | 4.58 |
| COC(=O)CNC(=O)CN(Cc1cn(CCCOc2c3cc(C(C)(C)C)cc2Sc2cc(C(C)(C)C)cc(c2OCCCn2cc(CN(CC(=O)NCC(=O)OC)C(=O)CCCCCn4cc(CO[C@H]5O[C@H](CO)[C@@H](O)[C@H](O)[C@@H]5O)nn4)nn2)Sc2cc(C(C)(C)C)cc(c2OCCCn2cc(CN(CC(=O)NCC(=O)OC)C(=O)CCCCCn4cc(CO[C@H]5O[C@H](CO)[C@@H](O)[C@H](O)[C@@H]5O)nn4)nn2)Sc2cc(C(C)(C)C)cc(c2OCCCn2cc(CN(CC(=O)NCC(=O)OC)C(=O)CCCCCn4cc(CO[C@H]5O[C@H](CO)[C@@H](O)[C@H](O)[C@@H]5O)nn4)nn2)S3)nn1)C(=O)CCCCCn1cc(CO[C@H]2O[C@H](CO)[C@@H](O)[C@H](O)[C@@H]2O)nn1 | – | – | 4.84 |
| COC(=O)CNC(=O)CN(Cc1cn(CCCOc2c3cc(C(C)(C)C)cc2Cc2cc(C(C)(C)C)cc(c2OCCCn2cc(CN(CC(=O)NCC(=O)OC)C(=O)CCCCCn4cc(CO[C@H]5O[C@H](CO)[C@@H](O)[C@H](O)[C@@H]5O)nn4)nn2)Cc2cc(C(C)(C)C)cc(c2OCCCn2cc(CN(CC(=O)NCC(=O)OC)C(=O)CCCCCn4cc(CO[C@H]5O[C@H](CO)[C@@H](O)[C@H](O)[C@@H]5O)nn4)nn2)Cc2cc(C(C)(C)C)cc(c2OCCCn2cc(CN(CC(=O)NCC(=O)OC)C(=O)CCCCCn4cc(CO[C@H]5O[C@H](CO)[C@@H](O)[C@H](O)[C@@H]5O)nn4)nn2)C3)nn1)C(=O)CCCCCn1cc(CO[C@H]2O[C@H](CO)[C@@H](O)[C@H](O)[C@@H]2O)nn1 | – | – | 4.34 |
| COC(=O)CNC(=O)CN(Cc1cn(CCCOc2c3cc(C(C)(C)C)cc2Sc2cc(C(C)(C)C)cc(c2OCCCn2cc(CN(CC(=O)NCC(=O)OC)C(=O)CCCCCn4cc(CO[C@@H]5O[C@@H](C)[C@@H](O)[C@@H](O)[C@@H]5O)nn4)nn2)Sc2cc(C(C)(C)C)cc(c2OCCCn2cc(CN(CC(=O)NCC(=O)OC)C(=O)CCCCCn4cc(CO[C@@H]5O[C@@H](C)[C@@H](O)[C@@H](O)[C@@H]5O)nn4)nn2)Sc2cc(C(C)(C)C)cc(c2OCCCn2cc(CN(CC(=O)NCC(=O)OC)C(=O)CCCCCn4cc(CO[C@@H]5O[C@@H](C)[C@@H](O)[C@@H](O)[C@@H]5O)nn4)nn2)S3)nn1)C(=O)CCCCCn1cc(CO[C@@H]2O[C@@H](C)[C@@H](O)[C@@H](O)[C@@H]2O)nn1 | 6.22 | 6.00 | 4.77 |
| CO[C@H]1O[C@H](CO)[C@@H](O)[C@H](O)[C@@H]1O [methyl alpha-D-mannoside] | 2.90 | – | – |
